# Reference: patent US20240109900A1, “AZABICYCLIC SHP2 INHIBITORS” (IRBM S.P.A., priority 2021, published 2024)
# Assays:
# [1] = molecular target: SHP-2 enzyme (Met1-Leu525) (Homo sapiens (Human), UniProt Q06124); assay: SHP2 inhibition enzymatic assay; assay type: biochemical; conditions: 0.5 nM SHP-2 activated by 500 nM IRS1 peptide, 75 μM DiFMUP substrate; read-out: SHP2wt-IC50
# How it was run: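 SHP-2 (Met1-Leu525), 0.5 nM, activated with 500 nM IRS1 bis-phosphopeptide, preincubated 30 min with compounds in HEPES pH 7.2 buffer with 5 mM DTT. 75 μM DiFMUP added for 30 min at room temperature, stopped with bpV; fluorescence read. IC50 from four-parameter logistic fit of % inhibition.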
# [2] = tested on: ERK phosphorylation in KYSE-520 cells; assay: Phospho-ERK cellular assay; assay type: cell-based; conditions: Homo sapiens, KYSE-520, 2 h, KYSE-520 cells, 2 h at 37° C., phospho-ERK1/2 (Thr202/Tyr204) TR-FRET; read-out: PERK IC50
# How it was run: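 TR-FRET read-out of ERK1/2 Thr202/Tyr204 phosphorylation was taken after overnight antibody incubation at room temperature. Before that, KYSE-520 cells were treated 2 h at 37 °C with compound dilutions and lysed 30 min. Percent inhibition relative to vehicle and cell-free wells was fitted four-parametrically to give IC50.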
# SHP-2 enzyme (Met1-Leu525), sequence (Q06124 1-525): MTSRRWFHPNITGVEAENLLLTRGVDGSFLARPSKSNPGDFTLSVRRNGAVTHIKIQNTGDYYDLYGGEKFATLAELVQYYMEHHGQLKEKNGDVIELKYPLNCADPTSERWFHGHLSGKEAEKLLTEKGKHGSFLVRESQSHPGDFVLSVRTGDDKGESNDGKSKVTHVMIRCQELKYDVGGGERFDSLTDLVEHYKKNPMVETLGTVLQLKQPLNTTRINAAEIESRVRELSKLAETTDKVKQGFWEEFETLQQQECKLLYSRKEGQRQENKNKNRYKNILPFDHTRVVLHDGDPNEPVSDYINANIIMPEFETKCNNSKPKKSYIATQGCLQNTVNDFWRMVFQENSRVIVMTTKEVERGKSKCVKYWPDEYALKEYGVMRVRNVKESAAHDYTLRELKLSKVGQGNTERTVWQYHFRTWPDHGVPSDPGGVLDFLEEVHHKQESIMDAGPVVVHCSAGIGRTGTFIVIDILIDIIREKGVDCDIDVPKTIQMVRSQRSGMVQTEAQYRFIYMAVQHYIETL
SMILES,IC50 [1],IC50 [2]
"NC[C@]1(c2ccccc2F)[C@@H]2CCN(c3cnc4c(-c5ccc6c(c5Cl)CC(=O)N6)n[nH]c4n3)C[C@@H]21 [Example 216, 5-(6-((1S,6R,7R)-7-(aminomethyl)-7-(2-fluorophenyl)-3-azabicyclo[4.1.0]heptan-3-yl)-1H-pyrazolo[3,4-b]pyrazin-3-yl)-4-chloroindolin-2-one]",< 0.5 µM,< 1 µM
"CN1C(=O)Cc2cc(-c3n[nH]c4nc(N5CC[C@@H]6[C@H](C5)[C@@]6(CN)c5ccccc5F)cnc34)ccc21 [Example 217, 5-(6-((1S,6R,7R)-7-(aminomethyl)-7-(2-fluorophenyl)-3-azabicyclo[4.1.0]heptan-3-yl)-1H-pyrazolo[3,4-b]pyrazin-3-yl)-1-methylindolin-2-one]",< 0.5 µM,< 1 µM
"NC[C@]1(c2ccccc2F)[C@@H]2CCN(c3cnc4c(-c5ccc6c(c5)CNC6=O)n[nH]c4n3)C[C@@H]21 [Example 218, 5-(6-((1S,6R,7R)-7-(aminomethyl)-7-(2-fluorophenyl)-3-azabicyclo[4.1.0]heptan-3-yl)-1H-pyrazolo[3,4-b]pyrazin-3-yl)isoindolin-1-one]",< 0.5 µM,< 1 µM
"COc1ccc(-c2n[nH]c3nc(N4CC[C@@H]5[C@H](C4)[C@@]5(CN)c4ccccc4F)cnc23)c2ccncc12 [Example 219, ((1S,6R,7R)-7-(2-fluorophenyl)-3-(3-(8-methoxyisoquinolin-5-yl)-1H-pyrazolo[3,4-b]pyrazin-6-yl)-3-azabicyclo[4.1.0]heptan-7-yl)methanamine]",< 0.5 µM,< 1 µM
"NC[C@]1(c2ccccc2F)[C@@H]2CCN(c3cnc4c(-c5ccc(C(N)=O)c6ncccc56)n[nH]c4n3)C[C@@H]21 [Example 220, 5-(6-((1S,6R,7R)-7-(aminomethyl)-7-(2-fluorophenyl)-3-azabicyclo[4.1.0]heptan-3-yl)-1H-pyrazolo[3,4-b]pyrazin-3-yl)quinoline-8-carboxamide]",< 0.5 µM,< 1 µM
"Cn1cc2c(Cl)c(-c3n[nH]c4nc(N5C[C@@H]6[C@H](C5)[C@@]6(CN)c5c(F)cccc5F)cnc34)ccc2n1 [Example 221, ((1R,5S,6s)-3-(3-(4-chloro-2-methyl-2H-indazol-5-yl)-1H-pyrazolo[3,4-b]pyrazin-6-yl)-6-(2,6-difluorophenyl)-3-azabicyclo[3.1.0]hexan-6-yl)methanamine]",< 0.5 µM,< 1 µM
"Cc1c(-c2n[nH]c3nc(N4CC[C@@H]5[C@H](C4)[C@@]5(CN)c4ccccc4F)cnc23)ccc2nccnc12 [Example 222, ((1S,6R,7R)-7-(2-fluorophenyl)-3-(3-(5-methylquinoxalin-6-yl)-1H-pyrazolo[3,4-b]pyrazin-6-yl)-3-azabicyclo[4.1.0]heptan-7-yl)methanamine]",< 0.5 µM,< 1 µM
"COC(=O)c1ccc(-c2n[nH]c3nc(N4CC[C@@H]5[C@H](C4)[C@@]5(CN)c4ccccc4F)cnc23)c(Cl)c1 [Example 223, methyl 4-(6-((1S,6R,7R)-7-(aminomethyl)-7-(2-fluorophenyl)-3-azabicyclo[4.1.0]heptan-3-yl)-1H-pyrazolo[3,4-b]pyrazin-3-yl)-3-chlorobenzoate]",< 0.5 µM,< 1 µM
"NC[C@]1(c2ccccc2F)[C@@H]2CCN(c3cnc4c(-c5cnc6ccccn56)n[nH]c4n3)C[C@@H]21 [Example 224, ((1S,6R,7R)-7-(2-fluorophenyl)-3-(3-(imidazo[1,2-a]pyridin-3-yl)-1H-pyrazolo[3,4-b]pyrazin-6-yl)-3-azabicyclo[4.1.0]heptan-7-yl)methanamine]",< 0.5 µM,< 1 µM
"COc1c(F)cc(-c2n[nH]c3nc(N4CC[C@@H]5[C@H](C4)[C@@]5(CN)c4ccccc4F)cnc23)c2cccnc12 [Example 225, ((1S,6R,7R)-3-(3-(7-fluoro-8-methoxyquinolin-5-yl)-1H-pyrazolo[3,4-b]pyrazin-6-yl)-7-(2-fluorophenyl)-3-azabicyclo[4.1.0]heptan-7-yl)methanamine]",< 0.5 µM,< 1 µM
"Cc1ccc2c(-c3n[nH]c4nc(N5CC[C@@H]6[C@H](C5)[C@@]6(CN)c5ccccc5F)cnc34)ccc(F)c2n1 [Example 226, ((1S,6R,7R)-3-(3-(8-fluoro-2-methylquinolin-5-yl)-1H-pyrazolo[3,4-b]pyrazin-6-yl)-7-(2-fluorophenyl)-3-azabicyclo[4.1.0]heptan-7-yl)methanamine]",< 0.5 µM,< 1 µM
"NC[C@]1(c2ccccc2F)[C@@H]2CCN(c3cnc4c(-c5ccc(C(=O)O)c(Cl)c5Cl)n[nH]c4n3)C[C@@H]21 [Example 227, 4-(6-((1S,6R,7R)-7-(aminomethyl)-7-(2-fluorophenyl)-3-azabicyclo[4.1.0]heptan-3-yl)-1H-pyrazolo[3,4-b]pyrazin-3-yl)-2,3-dichlorobenzoic acid]",< 0.5 µM,> 5 µM
"CN1C(=O)COc2ccc(-c3n[nH]c4nc(N5CC[C@@H]6[C@H](C5)[C@@]6(CN)c5ccccc5F)cnc34)c(Cl)c21 [Example 228, 6-(6-((1S,6R,7R)-7-(aminomethyl)-7-(2-fluorophenyl)-3-azabicyclo[4.1.0]heptan-3-yl)-1H-pyrazolo[3,4-b]pyrazin-3-yl)-5-chloro-4-methyl-2H-benzo[b][1,4]oxazin-3(4H)-one]",< 0.5 µM,< 1 µM
"NC[C@]1(c2ccccc2F)[C@@H]2CCN(c3cnc4c(-c5ccc6nn(C7COC7)cc6c5Cl)n[nH]c4n3)C[C@@H]21 [Example 229, ((1S,6R,7R)-3-(3-(4-chloro-2-(oxetan-3-yl)-2H-indazol-5-yl)-1H-pyrazolo[3,4-b]pyrazin-6-yl)-7-(2-fluorophenyl)-3-azabicyclo[4.1.0]heptan-7-yl)methanamine]",< 0.5 µM,< 1 µM
"NC[C@]1(c2ccccc2F)[C@@H]2CCN(c3cnc4c(-c5ccc6c(c5)NC(=O)CC6)n[nH]c4n3)C[C@@H]21 [Example 230, 7-(6-((1S,6R,7R)-7-(aminomethyl)-7-(2-fluorophenyl)-3-azabicyclo[4.1.0]heptan-3-yl)-1H-pyrazolo[3,4-b]pyrazin-3-yl)-3,4-dihydroquinolin-2(1H)-one]",< 0.5 µM,< 1 µM
"NC[C@]1(c2ccccc2F)[C@@H]2CCN(c3cnc4c(-c5ccc6ccc(=O)[nH]c6c5)n[nH]c4n3)C[C@@H]21 [Example 231, 7-(6-((1S,6R,7R)-7-(aminomethyl)-7-(2-fluorophenyl)-3-azabicyclo[4.1.0]heptan-3-yl)-1H-pyrazolo[3,4-b]pyrazin-3-yl)quinolin-2(1H)-one]",< 0.5 µM,< 1 µM
"Cn1c(=O)n(C)c2cc(-c3n[nH]c4nc(N5CC[C@@H]6[C@H](C5)[C@@]6(CN)c5ccccc5F)cnc34)ccc21 [Example 232, 5-(6-((1S,6R,7R)-7-(aminomethyl)-7-(2-fluorophenyl)-3-azabicyclo[4.1.0]heptan-3-yl)-1H-pyrazolo[3,4-b]pyrazin-3-yl)-1,3-dimethyl-1,3-dihydro-2H-benzo[d]imidazol-2-one]",< 0.5 µM,< 1 µM
"NC[C@]1(c2ccccc2F)[C@@H]2CCN(c3cnc4c(-c5ccc6c(c5)NC(=O)C6)n[nH]c4n3)C[C@@H]21 [Example 233, 6-(6-((1S,6R,7R)-7-(aminomethyl)-7-(2-fluorophenyl)-3-azabicyclo[4.1.0]heptan-3-yl)-1H-pyrazolo[3,4-b]pyrazin-3-yl)indolin-2-one]",< 0.5 µM,< 1 µM
"NC[C@]1(c2ccccc2F)[C@@H]2CCN(c3cnc4c(-c5ccc6[nH]c(=O)ccc6c5)n[nH]c4n3)C[C@@H]21 [Example 234, 6-(6-((1S,6R,7R)-7-(aminomethyl)-7-(2-fluorophenyl)-3-azabicyclo[4.1.0]heptan-3-yl)-1H-pyrazolo[3,4-b]pyrazin-3-yl)quinolin-2(1H)-one]",< 0.5 µM,< 1 µM
"NC[C@]1(c2ccccc2F)[C@@H]2CCN(c3cnc4c(-c5cc6ccccc6c(=O)[nH]5)n[nH]c4n3)C[C@@H]21 [Example 235, 3-(6-((1S,6R,7R)-7-(aminomethyl)-7-(2-fluorophenyl)-3-azabicyclo[4.1.0]heptan-3-yl)-1H-pyrazolo[3,4-b]pyrazin-3-yl)isoquinolin-1(2H)-one]",< 0.5 µM,> 5 µM
"NC[C@]1(c2ccccc2F)[C@@H]2CCN(c3cnc4c(-c5ccc(F)c6[nH]c(=O)ccc56)n[nH]c4n3)C[C@@H]21 [Example 236, 5-(6-((1S,6R,7R)-7-(aminomethyl)-7-(2-fluorophenyl)-3-azabicyclo[4.1.0]heptan-3-yl)-1H-pyrazolo[3,4-b]pyrazin-3-yl)-8-fluoroquinolin-2(1H)-one]",< 0.5 µM,< 1 µM
"NC[C@]1(c2ccccc2F)[C@@H]2CCN(c3cnc4c(-c5ccc6ccc(=O)[nH]c6c5Cl)n[nH]c4n3)C[C@@H]21 [Example 237, 7-(6-((1S,6R,7R)-7-(aminomethyl)-7-(2-fluorophenyl)-3-azabicyclo[4.1.0]heptan-3-yl)-1H-pyrazolo[3,4-b]pyrazin-3-yl)-8-chloroquinolin-2(1H)-one]",< 0.5 µM,< 1 µM
"NC[C@]1(c2ccccc2F)[C@@H]2CCN(c3cnc4c(-c5ccc6c(c5)CCC(=O)N6)n[nH]c4n3)C[C@@H]21 [Example 238, 6-(6-((1S,6R,7R)-7-(aminomethyl)-7-(2-fluorophenyl)-3-azabicyclo[4.1.0]heptan-3-yl)-1H-pyrazolo[3,4-b]pyrazin-3-yl)-3,4-dihydroquinolin-2(1H)-one]",< 0.5 µM,< 1 µM
